Experimental data published in patent US9943844B2, “Microfluidic evaluation system for evaluating the efficacy of an antiperspirant product and associated method” (L'OREAL, priority 2013, dated 2018).
Where two headings read alike, the source gives them in different places.

Columns and labels:
[1] = Microfluidic evaluation of antiperspirant efficacy: clog formation at the confluence of secondary (sweat) channel and main channel, seen by phase contrast microscopy
Excerpt: The invention also has for object a method for evaluating the efficacy of an antiperspirant product comprising the following steps: • supplying an evaluation system 1 such as described hereinabove; • injecting natural and/or artificial sweat into the or each secondary channel 9 of the microfluidic chip 5 from the sweat source 3; • injecting at least one antiperspirant product into the main channel 7; • determining at least one physical-chemical parameter that represents the efficacy of the antiperspirant agent considered; and • evaluating the efficacy of the antiperspirant product using the determined physical-chemical parameter.
The step of filling is followed by a step of distributing, during which the antiperspirant product flowing in the main channel 7 and the sweat flowing in the secondary channel or channels 9 react together, in particular on the zones of confluence between the sweat flowing in the secondary channel or channels 9 and the antiperspirant product flowing in the main channel 7. According to the efficacy of the antiperspirant product, during this step of distributing, the interaction between the sweat and the antiperspirant product leads to the formation of clogs at the outlet 25 of the secondary channel or channels 9.
These values can in particular be Boolean values. For example, the physical-chemical parameter measured is the formation or not of a clog, and it is concluded that the antiperspirant product tested is effective if the formation of a clog is observed during the method. If no formation of a clog is observed, non-efficacy is concluded for the antiperspirant product.
These tests were conducted with the microfluidic chip 4 described hereinabove, and by using as imaging tool 45 a phase contrast microscope.
The injection of the sweat and of the antiperspirant product was carried out according to the sequence described in the table 1.
It is considered that the antiperspirant product is not effective when no clog is formed in the secondary channel 9. In this case, the sweat of the secondary channel 9 can freely flow in the main channel 7.

[2] = cited from earlier work

Aluminum Zirconium Glycine [AZG]
Evaluation result [1]: Effective | antiperspirant efficacy in vivo ([2]; in vivo): effective

aluminum chlorohydrate [ACH]
Evaluation result ([1]; concentration 5%, injection sequence of table 1, effective = formation of a clog in secondary channel preventing sweat flow, not effective = no clog formed): Effective | Evaluation result ([1]; concentration 15%, injection sequence of table 1, effective = formation of a clog in secondary channel preventing sweat flow, not effective = no clog formed): Effective | antiperspirant efficacy in vivo ([2]; known to be (not) effective antiperspirant agent in vivo): effective
